Patent US5378803A, “Azole-fused peptides and processes for preparation thereof” (Sterling Winthrop Inc., priority 1992, dated 1995)
Residues, ends and D or L forms follow the SMILES beside them.

molecular target: T1, Substance P (Cavia porcellus, UniProt P30547); assay: Guinea pig ileum test for Substance P antagonist effect; format: cell-based; conditions: isolated guinea pig ileum longitudinal muscle strips; Schild plot analysis; 5-10 min contact time; footnote a = limited data due to solubility, b = slope significantly different from -1; read-out: Substance P Antagonist pA2 (converted)
T1 construct: Strips of longitudinal muscle (derived from terminal ileum of adult male guinea pigs); from tissue; host or cells: longitudinal muscle strips of terminal ileum, adult male guinea pigs (Charles River)
T1 sequence (P30547 whole entry): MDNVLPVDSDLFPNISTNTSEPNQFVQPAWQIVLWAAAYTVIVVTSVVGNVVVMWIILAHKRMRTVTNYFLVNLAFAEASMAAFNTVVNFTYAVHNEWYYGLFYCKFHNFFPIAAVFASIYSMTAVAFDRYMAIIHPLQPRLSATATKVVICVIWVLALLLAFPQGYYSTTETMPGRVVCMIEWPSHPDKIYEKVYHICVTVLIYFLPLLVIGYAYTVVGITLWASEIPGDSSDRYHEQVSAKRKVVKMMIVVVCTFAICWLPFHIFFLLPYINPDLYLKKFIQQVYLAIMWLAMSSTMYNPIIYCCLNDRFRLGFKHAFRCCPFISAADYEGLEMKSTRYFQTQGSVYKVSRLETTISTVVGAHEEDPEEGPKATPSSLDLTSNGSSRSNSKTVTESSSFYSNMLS
Procedure: As stated above the azole-fused peptides of Formula I are useful as Substance P antagonists and analgesics or as synthetic intermediates therefor.
Strips of longitudinal muscle (derived from terminal ileum of adult male guinea pigs (Charles River, 400-600 g.) are mounted in 5-ml. organ baths containing oxygenated Krebs solution containing l μM each of atropine and pyrilamine maintained at 30°-33° C. and connected to isometric transducers. Following tissue equilibration and repeated washing (45-60 min.), SP or an appropriate reference agonist is added cumulatively to the bath and contractions of the tissue are recorded. The bath is washed thoroughly and 30-45 min. is allowed to elapse before construction of a second reference agonist curve to assure reproducibility of the responses. Test compounds are similarly evaluated for agonist activity up to a maximum concentration of 10-100 μM. Regression analysis of the linear portion of the log concentration-percent maximal response curves provides the EC50 (and 95% confidence limits), the standard measure of agonist potency. When appropriate, relative molar potency ratios are calculated (EC50 reference/ED50 test drug). Antagonist activity is examined by pretreating thoroughly washed tissues with test compound (using a standard 5-10 min. contact time), then constructing a cumulative dose-response curve to the reference agonist. The effects of several concentrations of test antagonist, pooled across separate experiments, provide dose-ratio (EC50 shift) data for a standard Schild plot analysis, with computation of the pA2.

Question: With `CC(C)C[C@H](NC(=O)[C@@H](Cc1c[nH]c2ccccc12)NC(=O)c1nc(C2Cc3c([nH]c4ccccc34)CN2)sc1-c1ccccc1)C(=O)N[C@@H](Cc1ccccc1)C(N)=O` (single isomer, unassigned) [Example 7] as the compound, how does the Kb read?
Answer: > 10000 nM

Question: For `CC(C)C[C@H](NC(=O)[C@@H](Cc1c[nH]c2ccccc12)NC(=O)c1nc(C2Cc3c([nH]c4ccccc34)CN2)sc1-c1ccccc1)C(=O)N[C@@H](Cc1ccccc1)C(N)=O` (single isomer, unassigned) [Example 8], which Kb is on record?
Answer: 7940 nM

Question: Which Kb does the source give for `CN(C)CCNC(=O)[C@@H](Cc1c[nH]c2ccccc12)NC(=O)c1nc(C(Cc2c[nH]c3ccccc23)NC(=O)[C@@H]2CCCN2)sc1-c1ccccc1` (single isomer, unassigned) [Example 11] here?
Answer: 7940 nM

Question: For `CN(C)CCNC(=O)[C@@H](Cc1c[nH]c2ccccc12)NC(=O)c1nc(C(Cc2c[nH]c3ccccc23)NC(=O)[C@@H]2CCCN2)sc1-c1ccccc1` (single isomer, unassigned) [Example 12], which Kb is on record?
Answer: 5010 nM

Question: With `CC(C)C[C@H](NC(=O)[C@@H](Cc1c[nH]c2ccccc12)NC(=O)c1nc([C@H](Cc2c[nH]c3ccccc23)NC(=O)[C@@H]2CCCN2)sc1-c1ccccc1)C(=O)N[C@@H](Cc1ccccc1)C(N)=O` [Example 2] as the compound, how does the Kb read?
Answer: 126 nM

Question: For `CC(C)C[C@H](NC(=O)[C@@H](Cc1c[nH]c2ccccc12)NC(=O)c1nc([C@@H](Cc2c[nH]c3ccccc23)NC(=O)[C@@H]2CCCN2)sc1-c1ccccc1)C(=O)N[C@@H](Cc1ccccc1)C(N)=O` [Example 3], which Kb is on record?
Answer: 50.1 nM

Question: For `CC(C)c1sc([C@@H](Cc2c[nH]c3ccccc23)NC(=O)[C@H](Cc2ccccc2)NC(=O)[C@@H](Cc2c[nH]c3ccccc23)NC(=O)[C@@H]2CCCN2)nc1C(=O)N[C@@H](Cc1ccccc1)C(N)=O` [Example 4] (HELM PEPTIDE1{P.[dW].F.[CC(C)c1sc([C@@H](Cc2c[nH]c3ccccc23)N[*:1])nc1C(=O)[*:2]].F.[am]}$$$$V2.0), which Kb is on record?
Answer: 501 nM

Question: With `CC(C)c1sc([C@H](Cc2c[nH]c3ccccc23)NC(=O)[C@H](Cc2ccccc2)NC(=O)[C@@H](Cc2c[nH]c3ccccc23)NC(=O)[C@@H]2CCCN2)nc1C(=O)N[C@@H](Cc1ccccc1)C(N)=O` [Example 5] (HELM PEPTIDE1{P.[dW].F.[CC(C)c1sc([C@H](Cc2c[nH]c3ccccc23)N[*:1])nc1C(=O)[*:2]].F.[am]}$$$$V2.0) as the compound, how does the Kb read?
Answer: 126 nM

Question: Which Kb does the source give for `CC(C)C[C@H](NC(=O)c1nc([C@H](Cc2ccccc2)NC(=O)[C@@H](Cc2c[nH]c3ccccc23)NC(=O)[C@@H]2CCCN2)sc1-c1c[nH]c2ccccc12)C(=O)N[C@@H](Cc1ccccc1)C(N)=O` [Example 6] here?
Answer: 1260 nM

Question: `CC(C)C[C@H](NC(=O)c1nc([C@H](Cc2ccccc2)NC(=O)[C@@H](Cc2c[nH]c3ccccc23)NC(=O)[C@@H]2CCCN2)oc1-c1c[nH]c2ccccc12)C(=O)N[C@@H](Cc1ccccc1)C(N)=O` [Example 9] was tested. Which Kb did it give?
Answer: 5010 nM

Question: For `CC(C)C[C@H](NC(=O)c1nc([C@H](Cc2ccccc2)NC(=O)[C@@H](Cc2c[nH]c3ccccc23)NC(=O)[C@@H]2CCCN2)[nH]c1-c1c[nH]c2ccccc12)C(=O)N[C@@H](Cc1ccccc1)C(N)=O` [Example 10], which Kb is on record?
Answer: 1260 nM

Question: With `CC(C)C[C@H](NC(=O)[C@@H](Cc1c[nH]c2ccccc12)NC(=O)c1nc([C@@H](Cc2c[nH]c3ccccc23)NC(=O)[C@@H]2CCCN2)[nH]c1-c1ccccc1)C(=O)N[C@@H](Cc1ccccc1)C(N)=O` [Example 16] as the compound, how does the Kb read?
Answer: 200 nM

Question: For `CC(C)C[C@H](NC(=O)[C@@H](Cc1c[nH]c2ccccc12)NC(=O)[C@H](Cc1ccccc1)NC(=O)[C@@H](Cc1c[nH]c2ccccc12)NC(=O)[C@@H]1CCCN1)c1ncc(-c2ccccc2)[nH]1` [Example 17] (HELM PEPTIDE1{P.[dW].F.[dW].[CC(C)C[C@H](N[*:1])c1ncc(-c2ccccc2)[nH]1]}$$$$V2.0), which Kb is on record?
Answer: 501 nM

Question: For `CC(C)C[C@H](NC(=O)[C@@H](Cc1c[nH]c2ccccc12)NC(=O)c1nc([C@@H](Cc2c[nH]c3ccccc23)NC(=O)[C@@H]2CCCN2)sc1-c1ccccc1)C(=O)N[C@@H](Cc1ccccc1)C(=O)O` [Example 18], which Kb is on record?
Answer: 316 nM

Question: Which Kb does the source give for `CC(C)C[C@H](NC(=O)[C@@H](Cc1c[nH]c2ccccc12)NC(=O)c1nc([C@@H](Cc2c[nH]c3ccccc23)NC(=O)[C@@H]2CCCN2)sc1-c1ccccc1)C(=O)O` [Example 19] here?
Answer: > 10000 nM

Question: For `CC(C)C[C@H](NC(=O)[C@@H](Cc1c[nH]c2ccccc12)NC(=O)c1nc([C@H](N)Cc2c[nH]c3ccccc23)sc1-c1ccccc1)C(=O)O` [Example 20], which Kb is on record?
Answer: > 10000 nM

Question: For `CC(C)c1sc([C@@H](Cc2c[nH]c3ccccc23)NC(=O)c2nc([C@@H](Cc3c[nH]c4ccccc34)NC(=O)[C@@H]3CCCN3)sc2-c2ccccc2)nc1C(=O)NC[C@@H](N)Cc1ccccc1` [Example 21], which Kb is on record?
Answer: > 10000 nM

Question: With `CC(C)C[C@H](NC(=O)[C@@H](Cc1c[nH]c2ccccc12)NC(=O)c1nc([C@@H](Cc2c[nH]c3ccccc23)NC(=O)[C@@H]2CCCN2)sc1-c1ccccc1)C(=O)N(C)C(Cc1ccccc1)C(N)=O` (stereo partly drawn) [Example 22] as the compound, how does the Kb read?
Answer: 79.4 nM

Question: `CC(C)C[C@H](NC(=O)[C@@H](Cc1c[nH]c2ccccc12)NC(=O)c1nc([C@@H](Cc2c[nH]c3ccccc23)NC(=O)[C@@H]2CCCN2)oc1-c1ccccc1)C(=O)N[C@@H](Cc1ccccc1)C(N)=O` [Example 24] was tested. Which Kb did it give?
Answer: 631 nM

Question: For `CC(C)c1sc([C@@H](Cc2c[nH]c3ccccc23)NC(=O)[C@H](Cc2ccccc2)NC(=O)[C@@H](Cc2c[nH]c3ccccc23)NC(=O)[C@@H]2CCCN2)nc1C(=O)NC[C@@H](N)Cc1ccccc1` [Example 25], which Kb is on record?
Answer: 794 nM

Question: How did the Kb turn out when `CC(C)c1sc([C@@H](Cc2c[nH]c3ccccc23)NC(=O)[C@H](Cc2ccccc2)NC(=O)[C@@H](Cc2c[nH]c3ccccc23)NC(=O)[C@@H]2CCCN2)nc1CN(C)CCc1ccccc1` [Example 27] was run?
Answer: ≥ 10000 nM
